# Conditions: HPLC on reversed phase columns, pH 2.7, 0.1% formic acid in water / acetonitrile gradient
row,SMILES,LogP
1,Cn1oc(=O)nc1C(=NOCc1cccc(NC(=O)OC(C)(C)C)n1)c1cccc(F)c1F [Example 187],3.33

# Same assay, conditions: pH 2.7, LogP, HPLC on reversed phase columns, pH 2.7, 0.1% formic acid in water / acetonitrile gradient
row,SMILES,chromatographic logP
1,Cn1oc(=O)nc1C(=NOCc1cccc(NC(=O)OCCC2CC2)n1)c1ccccc1 [Example 138],3.39
2,C/C=C/CCCOC(=O)Nc1cccc(CON=C(c2ccccc2)c2nc(=O)on2C)n1 [Example 183],3.81
3,CC(OC(=O)Nc1cccc(CON=C(c2ccccc2)c2nc(=O)on2C)n1)C1CCCC1 (centres unmarked) [Example 179],4.15
4,COc1cccc(C(=NOCc2cccc(NC(=O)c3ccccc3)n2)c2nc(=O)o[nH]2)c1 [Example 67],2.96
5,Cn1oc(=O)nc1C(=NOCc1cccc(NC(=O)CCC2CCCCC2)n1)c1ccccc1 [Example 147],4.06
6,Cn1oc(=O)nc1C(=NOCc1cccc(NC(=O)OCCc2ccccc2)n1)c1cccc(F)c1F [Example 190],3.62
7,Cc1cccc(C(=O)Nc2cccc(CON=C(c3ccccc3)c3nc(=O)on3C)n2)c1 [Example 128],3.27
8,"Cn1oc(=O)nc1/C(=N\OCc1cccc(Br)n1)c1ccccc1 [Example 193, 3-[(Z)-{[(6-bromopyridin-2-yl)methoxy]imino}(phenyl)methyl]-2-methyl-1,2,4-oxadiazol-5(2H)-one]",2.75
9,Cn1oc(=O)nc1C(=NOCc1cccc(NC(=O)OCC2CCCCC2)n1)c1ccccc1 [Example 127],4.24
10,COc1cccc(C(=NOCc2cccc(NC(=O)c3cccc(C)c3)n2)c2nc(=O)o[nH]2)c1 [Example 61],3.31
11,C#CCC(C)OC(=O)Nc1cccc(CON=C(c2ccccc2)c2nc(=O)on2C)n1 (centres unmarked) [Example 125],2.98
12,Cn1oc(=O)nc1C(=NOCc1cccc(NC(=O)C2CCCCC2)n1)c1ccccc1 [Example 146],3.29
13,Cn1oc(=O)nc1C(=NOCc1cccc(NC(=O)c2ccccc2)n1)c1cccc(F)c1 [Example 89],3
14,Cn1oc(=O)nc1C(=NOCc1cccc(NC(=O)C2(C)CCCCC2)n1)c1ccccc1 [Example 136],3.68
15,Cc1cccc(C(=NOCc2cccc(NC(=O)CCc3ccccc3)n2)c2nc(=O)on2C)c1 [Example 79],3.48
16,C#CCOC(=O)Nc1cccc(CON=C(c2cccc(C)c2)c2nc(=O)on2C)n1 [Example 108],2.84
17,CC(Oc1ccccc1)C(=O)Nc1cccc(CON=C(c2ccccc2)c2nc(=O)on2C)n1 (centres unmarked) [Example 140],3.35
18,C#CCCCCOC(=O)Nc1cccc(CON=C(c2ccccc2)c2nc(=O)on2C)n1 [Example 124],3.21
19,Cn1oc(=O)nc1C(=NOCc1cccc(NC(=O)OCCc2ccccc2)n1)c1cccc(F)c1 [Example 165],3.65
20,Cc1cccc(C(=NOCc2cccc(NC(=O)OCc3ccccc3)n2)c2nc(=O)on2C)c1 [Example 167],3.68
21,COCCn1oc(=O)nc1C(=NOCc1cccc(NC(=O)OC(C)(C)C)n1)c1ccccc1 [Example 42],3.61
22,Cc1cccc(C(=NOCc2cccc(NC(=O)OCCc3ccccc3)n2)c2nc(=O)on2C)c1 [Example 168],3.85

row,SMILES,chromatographic logP
1,C=CCC(C)OC(=O)Nc1cccc(CON=C(c2ccccc2)c2nc(=O)on2C)n1 (centres unmarked) [Example 152],3.39
2,CC(C)n1oc(=O)nc1C(=NOCc1cccc(NC(=O)OC(C)(C)C)n1)c1ccccc1 [Example 41],3.8
3,COc1cccc(C(=O)Nc2cccc(CON=C(c3ccccc3)c3nc(=O)on3C)n2)c1 [Example 132],3.02
4,C=CCCCOC(=O)Nc1cccc(CON=C(c2ccccc2)c2nc(=O)on2C)n1 [Example 129],3.41
5,CCCCCCC(=O)Nc1cccc(CON=C(c2ccccc2)c2nc(=O)on2C)n1 [Example 120],3.65
6,CC(OC(=O)Nc1cccc(CON=C(c2ccccc2)c2nc(=O)on2C)n1)C1CCCCC1 (centres unmarked) [Example 141],4.56
7,COc1ccc(CC(=O)Nc2cccc(CON=C(c3cccc(F)c3F)c3nc(=O)on3C)n2)cc1 [Example 191],2.98
8,"Cn1oc(=O)nc1/C(=N\OCc1cccc(N)n1)c1ccccc1 [Example 11, 3-[(Z)-{[(6-aminopyridin-2-yl)methoxy]imino}(phenyl)methyl]-2-methyl-1,2,4-oxadiazol-5(2H)-one]",0.84
9,Cn1oc(=O)nc1C(=NOCc1cccc(NC(=O)COc2ccccc2)n1)c1ccccc1 [Example 139],3.13
10,Cn1oc(=O)nc1C(=NOCc1cccc(NC(=O)OC(C)(C)C)n1)c1cccc(F)c1F [Example 113],3.39
11,Cc1cccc(C(=NOCc2cccc(NC(=O)OCCC(C)C)n2)c2nc(=O)on2C)c1 [Example 91],4.03
12,CC#CCOC(=O)Nc1cccc(CON=C(c2ccccc2)c2nc(=O)on2C)n1 [Example 134],2.84
13,C#CCOC(=O)Nc1cccc(CON=C(c2ccccc2)c2nc(=O)on2C)n1 [Example 131],2.57
14,Cn1oc(=O)nc1C(=NOCc1cccc(NC(=O)OCc2ccccc2)n1)c1cccc(F)c1 [Example 163],3.5
15,COc1cccc(C(=NOCc2cccc(NC(=O)Cc3ccccc3)n2)c2nc(=O)on2C)c1 [Example 166],3.02
16,COc1cccc(C(=NOCc2cccc(NC(=O)c3ccc(F)cc3)n2)c2nc(=O)o[nH]2)c1 [Example 62],3.09
17,Cn1oc(=O)nc1C(=NOCc1cccc(NC(=O)OCCC2CCCC2)n1)c1ccccc1 [Example 118],4.26
18,C#CCOC(=O)Nc1cccc(CON=C(c2cccc(OC)c2)c2nc(=O)on2C)n1 [Example 95],2.63
19,CCn1oc(=O)nc1C(=NOCc1cccc(N)n1)c1ccccc1 [Example 111],1.07
20,Cn1oc(=O)nc1C(=NOCc1cccc(NC(=O)OCc2ccccc2Cl)n1)c1ccccc1 [Example 184],3.76
21,CCCCC(C)C(=O)Nc1cccc(CON=C(c2ccccc2)c2nc(=O)on2C)n1 (centres unmarked) [Example 144],3.55
22,Cn1oc(=O)nc1C(=NOCc1cccc(NC(=O)CCC2CCCC2)n1)c1ccccc1 [Example 145],3.72

row,SMILES,chromatographic logP
1,Cc1ccc(C(=O)Nc2cccc(CON=C(c3ccccc3)c3nc(=O)on3C)n2)cc1 [Example 159],3.23
2,Cn1oc(=O)nc1C(=NOCc1cccc(NC(=O)c2csc3ccccc23)n1)c1ccccc1 [Example 142],3.65
3,Cn1oc(=O)nc1C(=NOCc1cccc(NC(=O)c2ccccc2)n1)c1ccccc1 [Example 160],2.92
4,Cc1cccc(C(=O)Nc2cccc(CON=C(c3cccc(C)c3)c3nc(=O)on3C)n2)c1 [Example 86],3.55
5,COc1cccc(C(=O)Nc2cccc(CON=C(c3cccc(C)c3)c3nc(=O)on3C)n2)c1 [Example 88],3.31
6,Cn1oc(=O)nc1C(=NOCc1cccc(NC(=O)Cc2ccccc2)n1)c1ccccc1 [Example 126],2.94
7,CC(C(=O)Nc1cccc(CON=C(c2ccccc2)c2nc(=O)on2C)n1)c1ccccc1 (centres unmarked) [Example 155],3.29
8,Cn1oc(=O)nc1C(=NOCc1cccc(NC(=O)c2ccc(F)cc2)n1)c1ccccc1 [Example 157],3.04
9,Cn1oc(=O)nc1C(=NOCc1cccc(NC(=O)OCCC2CCCCC2)n1)c1ccccc1 [Example 158],4.63
10,Cn1oc(=O)nc1C(=NOCc1cccc(NC(=O)OCCCCCl)n1)c1ccccc1 [Example 143],3.27
11,C#CCCCC(=O)Nc1cccc(CON=C(c2ccccc2)c2nc(=O)on2C)n1 [Example 149],2.6
12,Cn1oc(=O)nc1C(=NOCc1cccc(NC(=O)OCCCC2CCCC2)n1)c1ccccc1 [Example 130],4.68
13,C#CCCOC(=O)Nc1cccc(CON=C(c2cccc(F)c2F)c2nc(=O)on2C)n1 [Example 189],2.78
14,Cn1oc(=O)nc1C(=NOCc1cccc(NC(=O)C2CCCC2)n1)c1ccccc1 [Example 117],2.98
15,COc1cccc(C(=NOCc2cccc(NC(=O)C(C)(C)C)n2)c2nc(=O)on2C)c1 [Example 93],2.92
16,Cn1oc(=O)nc1C(=NOCc1cccc(NC(=O)OCC(C)(C)C)n1)c1ccccc1 [Example 121],3.7
17,Cn1oc(=O)nc1C(=NOCc1cccc(NC(=O)CC2CCCC2)n1)c1ccccc1 [Example 115],3.29
18,Cc1cccc(C(=NOCc2cccc(NC(=O)Cc3cccc(F)c3)n2)c2nc(=O)on2C)c1 [Example 98],3.31
19,Cn1oc(=O)nc1C(=NOCc1cccc(NC(=O)Cc2cccs2)n1)c1ccccc1 [Example 135],2.86
20,CCCCCC(=O)Nc1cccc(CON=C(c2ccccc2)c2nc(=O)on2CCOC)n1 [Example 175],3.5

# Same assay, conditions: pH 2.7, LogP, HPLC on reversed phase columns, pH 2.7, 0.1% formic acid in water / acetonitrile gradient; compounds of formula (V), Table 2
row,SMILES,chromatographic logP
1,Cc1cccc(C(=NOCc2cccc(NC(=O)OC(C)(C)C)n2)C(=N)N(C)O)c1 [Example V-04],1.93
2,CC(C)N(O)C(=N)C(=NOCc1cccc(NC(=O)OC(C)(C)C)n1)c1ccccc1 [Example V-09],2.05
3,"CN(O)C(=N)/C(=N\OCc1cccc(NC(=O)OC(C)(C)C)n1)c1cccc(F)c1 [Example V-05, tert-butyl (6-{[({(1Z)-2-[hydroxy(methyl)amino]-2-imino-1-(3-fluorophenyl)ethylidene}amino)oxy]methyl}pyridin-2-yl)carbamate]",1.86
4,"CCN(O)C(=N)/C(=N\OCc1cccc(NC(=O)OC(C)(C)C)n1)c1ccccc1 [Example V-08, tert-butyl (6-{[({(1Z)-2-[hydroxy(ethyl)amino]-2-imino-1-(phenyl)ethylidene}amino)oxy]methyl}pyridin-2-yl)carbamate]",1.9
5,CN(O)C(=N)C(=NOCc1cccc(N)n1)c1ccccc1 [Example V-03],0.22
6,CN(O)C(=N)C(=NOCc1cccc(NC(=O)OC(C)(C)C)n1)c1ccccc1C(F)F [Example V-11],2.43
